Where a name gives a salt, the structure may show the parent alone.
The compounds below were run against T1, angiotensin IV receptor (Cavia porcellus, UniProt H0VNM7) (assay: Binding to angiotensin IV receptor (125I-angiotensin IV displacement, crude membrane specimen)). Details: Hartley guinea pig hippocampus membrane; 0.2 nM 125I-angiotensin IV; 37°C for 90 minutes; nonspecific bond with 1 µM angiotensin IV.
T1 sequence (H0VNM7 1-1025): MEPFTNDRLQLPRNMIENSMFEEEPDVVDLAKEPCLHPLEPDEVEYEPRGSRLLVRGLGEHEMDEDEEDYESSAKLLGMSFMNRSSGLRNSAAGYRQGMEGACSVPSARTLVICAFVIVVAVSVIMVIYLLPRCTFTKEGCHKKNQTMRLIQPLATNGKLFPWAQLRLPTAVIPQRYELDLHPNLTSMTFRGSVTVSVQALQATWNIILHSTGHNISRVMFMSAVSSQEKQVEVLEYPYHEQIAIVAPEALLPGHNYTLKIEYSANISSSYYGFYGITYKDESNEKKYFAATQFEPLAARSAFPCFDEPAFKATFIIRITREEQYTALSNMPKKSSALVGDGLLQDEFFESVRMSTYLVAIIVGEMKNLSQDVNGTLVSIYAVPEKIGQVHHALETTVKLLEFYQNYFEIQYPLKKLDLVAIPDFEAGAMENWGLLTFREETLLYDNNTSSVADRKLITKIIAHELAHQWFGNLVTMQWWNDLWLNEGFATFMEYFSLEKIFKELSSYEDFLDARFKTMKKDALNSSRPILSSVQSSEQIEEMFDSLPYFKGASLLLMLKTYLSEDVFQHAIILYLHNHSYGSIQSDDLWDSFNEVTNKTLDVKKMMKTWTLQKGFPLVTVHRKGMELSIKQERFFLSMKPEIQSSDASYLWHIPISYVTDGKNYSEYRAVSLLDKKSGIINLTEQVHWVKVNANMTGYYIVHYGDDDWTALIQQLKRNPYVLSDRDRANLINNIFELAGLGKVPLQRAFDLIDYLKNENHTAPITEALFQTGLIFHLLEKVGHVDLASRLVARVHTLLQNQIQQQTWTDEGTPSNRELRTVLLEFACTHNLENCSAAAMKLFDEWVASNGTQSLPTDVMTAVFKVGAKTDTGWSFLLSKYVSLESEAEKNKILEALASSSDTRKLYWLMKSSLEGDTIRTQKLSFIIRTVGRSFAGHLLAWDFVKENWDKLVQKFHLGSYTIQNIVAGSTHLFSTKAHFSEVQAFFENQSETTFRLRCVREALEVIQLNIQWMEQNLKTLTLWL
Procedure: The capability of binding to angiotensin IV receptor was measured by using Hartley guinea pig hippocampus in accordance with the method reported by Miller-Wing et al., J. Pharmacol. Exp. Therp., 266:1718 (1993).
The Hartley guinea pig hippocampus was homogenized in a 50 mM Tris hydrochloride buffer solution (pH 7.4) containing 1 mM of ethylenediamine-N,N,N',N'-tetraacetic acid (EDTA) and 100 µm of phenylmethanesufonyl fluoride (PMSF). After centrifuging at 900 × g, the supernatant thus obtained was further centrifuged at 48,000 × g. The precipitate was washed once with the same buffer solution and then the precipitate was suspended in a 50 mM Tris hydrochloride buffer solution (pH 7.4) containing 150 mM of sodium chloride, 1 mM of EDTA, 100 µm of PMSF and 0.1% of bovine serum albumin (BSA) in such a manner as to give a protein concentration of 50 µg/ml to thereby give a crude membrane specimen.
This membrane specimen was allowed to react with 0.2 nM ^125I-angiotensin IV and a test compound dissolved in dimethyl sulfoxide at 37°C for 90 minutes. Then ^125I-angiotensin IV binding to the membrane was filtered under suction onto GF/B filer paper with the use of a cell harvester for laboratory use. The radioactivity on the filter paper was measured with a gamma-counter. The nonspecific bond was measured in the presence of 1 µM of angiotensin IV and the specific bond was calculated by subtracting the nonspecific bond from the total bond. The capability (IC50) of the test compound of binding to angiotensin IV receptor was determined as the concentration of the test compound capable of inhibiting the binding at an extent of 50% from the inhibition curve obtained by reacting 0.2 nM ^125I-angiotensin IV with the test compound at various concentrations.

Compound	IC50
CC[C@H](C)[C@H](CCc1ccccc1)NC(=O)[C@H](Cc1ccc(O)cc1)NC(=O)[C@@H](N)C(C)C [Example 59, (3S,4S)-N'-(L-valyl)-N-(4-methyl-1-phenylhexan-3-yl)-L-tyrosinamide hydrochloride]	26.5 nM
CCCC[C@H](N)C(=O)N[C@@H](Cc1ccc(O)cc1)C(=O)N[C@@H](CCc1ccc(C)cc1)[C@@H](C)CC [Example 61, (3S,4S)-N'-(L-norleucyl)-N-[4-methyl-1-(4-methylphenyl)-1-hexan-3-yl]-L-tyrosinamide hydrochloride]	24.2 nM
L-valyl-L-tyrosyl-N-(4-pyridylmethyl)-L-isoleucinamide [Example 9]	5.99 nM
N'-[N-(L-norleucyl)-N^im-benzyl-L-histidyl]-N-(2-phenylethyl)-L-leucinamide dihydrochloride [Example 33]	12.6 nM
N'-[N-[L-2-amino-3-(ethylthio)propionyl]-L-tyrosyl]-N-(2-phenylethyl)-L-leucinamide hydrochloride [Example 18]	0.4 nM
